Measured values from patent publication EP0620225B1, “Cephalosporin derivatives” (Basilea Pharmaceutica AG, priority 1993, dated 1994).
In brackets after ≈: the same amount, converted by molar mass.

Key:
Test in all cases: Antibacterial spectrum (MIC), agar dilution
Type in all cases: cell-based
S.pyogenes B15 = conditions: Streptococcus pyogenes, read-out: MIC
Description: (§1) In vitro activity was determined by minimum inhibitory concentration in a microorganism spectum by the agar dilution method in Mueller Hinton agar.

E.cloacae 908R = conditions: Enterobacter cloacae, read-out: MIC
Description: as §1

M.morganii 6H-137 = conditions: Morganella morganii, 6H137, read-out: MIC
Description: as §1

M.catarrhalis RA21 = conditions: Moraxella catarrhalis, read-out: MIC
Description: as §1

C.freundii 43 = conditions: Citrobacter freundii, read-out: MIC
Description: as §1

Acinetobacter sp.51-156 = conditions: SP.51156, read-out: MIC
Description: as §1

P.vulgaris 1028 = conditions: Proteus vulgaris, read-out: MIC
Description: as §1

E.cloacae 908SSi = conditions: Enterobacter cloacae, read-out: MIC
Description: as §1

P.aeruginosa 27853 = conditions: Pseudomonas aeruginosa, read-out: MIC
Description: as §1

N.meningitidis 69480 = conditions: Neisseria meningitidis, read-out: MIC
Description: as §1

S.pneumoniae Q19 = conditions: Streptococcus pneumoniae, read-out: MIC
Description: as §1

H.influenzae 1 = conditions: Haemophilus influenzae, read-out: MIC
Description: as §1

S.marcescens 69438 = conditions: Serratia marcescens, read-out: MIC
Description: as §1

E.coli 25922 = conditions: Escherichia coli, read-out: MIC
Description: as §1

K.pneumoniae 418 = conditions: Klebsiella pneumoniae, read-out: MIC
Description: as §1

S.aureus 6538 = conditions: Staphylococcus aureus, read-out: MIC
Description: as §1

P.mirabilis 2117 = conditions: Proteus mirabilis, read-out: MIC
Description: as §1

C.freundii 902 = conditions: Citrobacter freundii, read-out: MIC
Description: as §1

L.monocytogenes BK23 = conditions: Listeria monocytogenes, read-out: MIC
Description: as §1

S.viridans group 016 = conditions: Streptococcus viridans, read-out: MIC
Description: as §1

E.faecalis 6 = conditions: Enterococcus faecalis, read-out: MIC
Description: as §1

X.maltophilia 1AC739 = conditions: Stenotrophomonas maltophilia, read-out: MIC
Description: as §1

S.agalactiae QK44 = conditions: Streptococcus agalactiae, read-out: MIC
Description: as §1

S.aureus 734 MRSA = conditions: Staphylococcus aureus, read-out: MIC
Description: as §1

MIC (S.pyogenes B15) | MIC (E.cloacae 908R) | MIC (M.morganii 6H-137) | MIC (M.catarrhalis RA21) | MIC (C.freundii 43) | MIC (Acinetobacter sp.51-156) | MIC (P.vulgaris 1028) | MIC (E.cloacae 908SSi) | MIC (P.aeruginosa 27853) | MIC (N.meningitidis 69480) | MIC (S.pneumoniae Q19) | MIC (H.influenzae 1) | MIC (S.marcescens 69438) | MIC (E.coli 25922) | MIC (K.pneumoniae 418) | MIC (S.aureus 6538) | MIC (P.mirabilis 2117) | MIC (C.freundii 902) | MIC (L.monocytogenes BK23) | MIC (S.viridans group 016) | SMILES | also measured
≤ 0.06 µg/mL | 16 µg/mL (≈ 31.7 µM) | ≤ 0.06 µg/mL | 8 µg/mL (≈ 15.9 µM) | 4 µg/mL (≈ 7.93 µM) | 16 µg/mL (≈ 31.7 µM) | 2 µg/mL (≈ 3.96 µM) | 0.25 µg/mL (≈ 0.495 µM) | 16 µg/mL (≈ 31.7 µM) | ≤ 0.06 µg/mL | ≤ 0.06 µg/mL | 0.5 µg/mL (≈ 0.991 µM) | 1 µg/mL (≈ 1.98 µM) | ≤ 0.06 µg/mL | 0.12 µg/mL (≈ 0.238 µM) | 1 µg/mL (≈ 1.98 µM) | ≤ 0.06 µg/mL | ≤ 0.06 µg/mL | 4 µg/mL (≈ 7.93 µM) | 1 µg/mL (≈ 1.98 µM) | C=CCN1CC/C(=C\C2=C(C(=O)O)N3C(=O)[C@@H](NC(=O)/C(=N\O)c4csc(N)n4)[C@H]3SC2)C1=O [L, [6R-[3(E),6α,7β(Z)]]-3-[[1-Allyl-2-oxo-3-pyrrolidinylidene]methyl]-7-[[(2-amino-4-thiazolyl)(hydroxyimino)acetyl]amino]-8-oxo-5-thia-1-azabicyclo[4.2.0]oct-2-ene-2-carboxylic acid] | MIC (E.faecalis 6): 2 µg/mL (≈ 3.96 µM); MIC (X.maltophilia 1AC739): > 32 µg/mL; MIC (S.agalactiae QK44): 0.25 µg/mL (≈ 0.495 µM); MIC (S.aureus 734 MRSA): 16 µg/mL (≈ 31.7 µM)
≤ 0.06 µg/mL | 16 µg/mL (≈ 31.8 µM) | ≤ 0.06 µg/mL | 8 µg/mL (≈ 15.9 µM) | 8 µg/mL (≈ 15.9 µM) | 8 µg/mL (≈ 15.9 µM) | 8 µg/mL (≈ 15.9 µM) | 1 µg/mL (≈ 1.99 µM) | 8 µg/mL (≈ 15.9 µM) | ≤ 0.06 µg/mL | ≤ 0.06 µg/mL | 0.5 µg/mL (≈ 0.993 µM) | 4 µg/mL (≈ 7.94 µM) | ≤ 0.06 µg/mL | 0.12 µg/mL (≈ 0.238 µM) | 1 µg/mL (≈ 1.99 µM) | ≤ 0.06 µg/mL | 0.25 µg/mL (≈ 0.497 µM) | 4 µg/mL (≈ 7.94 µM) | 1 µg/mL (≈ 1.99 µM) | N#CCN1CC/C(=C\C2=C(C(=O)O)N3C(=O)[C@@H](NC(=O)/C(=N\O)c4csc(N)n4)[C@H]3SC2)C1=O [M, [6R-[3(E),6α,7β(Z)]]-7-[[(2-Amino-4-thiazolyl)(hydroxyimino)acetyl]-amino]-3-[[1-cyanomethyl-2-oxo-3-pyrrolidinylidene]methyl]-8-oxo-5-thia-1-azabicyclo[4.2.0]oct-2-ene-2-carboxylic acid] | MIC (E.faecalis 6): 1 µg/mL (≈ 1.99 µM); MIC (X.maltophilia 1AC739): > 32 µg/mL; MIC (S.agalactiae QK44): 0.25 µg/mL (≈ 0.497 µM); MIC (S.aureus 734 MRSA): 4 µg/mL (≈ 7.94 µM)
≤ 0.06 µg/mL | 8 µg/mL (≈ 14.7 µM) | ≤ 0.06 µg/mL | 8 µg/mL (≈ 14.7 µM) | 2 µg/mL (≈ 3.69 µM) | 32 µg/mL (≈ 59 µM) | 4 µg/mL (≈ 7.37 µM) | 0.25 µg/mL (≈ 0.461 µM) | 8 µg/mL (≈ 14.7 µM) | 0.5 µg/mL (≈ 0.922 µM) | 0.12 µg/mL (≈ 0.221 µM) | 0.5 µg/mL (≈ 0.922 µM) | 4 µg/mL (≈ 7.37 µM) | ≤ 0.06 µg/mL | 0.25 µg/mL (≈ 0.461 µM) | 0.5 µg/mL (≈ 0.922 µM) | 0.12 µg/mL (≈ 0.221 µM) | 0.12 µg/mL (≈ 0.221 µM) | 4 µg/mL (≈ 7.37 µM) | 1 µg/mL (≈ 1.84 µM) | Nc1nc(/C(=N/O)C(=O)N[C@@H]2C(=O)N3C(C(=O)O)=C(/C=C4\CCN(c5cnccn5)C4=O)CS[C@H]23)cs1 [P] | MIC (E.faecalis 6): 0.5 µg/mL (≈ 0.922 µM); MIC (X.maltophilia 1AC739): > 32 µg/mL; MIC (S.agalactiae QK44): 0.5 µg/mL (≈ 0.922 µM); MIC (S.aureus 734 MRSA): 8 µg/mL (≈ 14.7 µM)
